Among the data in PubChem BioAssay (NCI) are TGI and GI50 values, retold here.

Among the test systems are HT29 colon; MCF7 breast; M14 melanoma; MDA-MB-231 breast; HS 578T breast; UACC-257 melanoma; SF-268 CNS; SK-MEL-2 melanoma; MDA-MB-435; OVCAR-8 ovarian.
Common to all, as to assay: inhibition of tumour cell growth, NCI panel, 48 h

Molecules are shown by their SMILES.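 1) Cells in 96-well plates. 2) Compound, 48 h, 5 concentrations. 3) Linear interpolation between surrounding doses. 4) Unreached endpoint = highest concentration. The concentration for 50% growth inhibition is given as GI50. TGI: total growth inhibition.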

For the molecule `CC1=C(\C=C/C(C)=C/C=C/C(C)=C/C=C/C=C(C)\C=C\C=C(C)/C=C/C2=C(C)CCCC2(C)C)C(C)(C)CCC1`, the TGI in the test on HT29 colon, in the test on MCF7 breast, with M14 melanoma, in the test with MDA-MB-231 breast, in the test with HS 578T breast and in the test on UACC-257 melanoma was over 100 µM throughout. Further, the TGI in the test with SF-268 CNS, with SK-MEL-2 melanoma, with MDA-MB-435 and in the test with OVCAR-8 ovarian was over 100 µM in each case.
On to `N#Cc1cnn(C(=O)c2nn(-c3ccc(Cl)cc3)cc2O)c1N`, for which the GI50 in the test on HT29 colon was 1 µM; in the test on MCF7 breast, 0.373 µM; in the test on M14 melanoma, 0.462 µM; in the test with MDA-MB-231 breast it was 0.708 µM; in the test on HS 578T breast, 0.192 µM; in the test with UACC-257 melanoma it was 0.47 µM. In addition, the GI50 in the test on SF-268 CNS is 0.439 µM; in the test on SK-MEL-2 melanoma, 0.908 µM; in the test on MDA-MB-435, 0.312 µM; with OVCAR-8 ovarian, 0.474 µM. Besides, the TGI came to 14.3 µM in the test on HT29 colon; 10.5 µM in the test with MCF7 breast; 8.01 µM in the test on M14 melanoma; 19.2 µM with MDA-MB-231 breast; 3.43 µM in the test on HS 578T breast; 10.6 µM in the test with UACC-257 melanoma. The TGI with SF-268 CNS was 23.8 µM; in the test with SK-MEL-2 melanoma it was 18.9 µM; with MDA-MB-435, 18.9 µM; in the test with OVCAR-8 ovarian it was over 44.4 µM.
For the molecule `C=C(CN1CCN(c2cc(C(F)(F)F)cc(C(F)(F)F)c2)CC1)c1ccc(C(=O)Nc2ccccc2N)cc1`, the GI50 is 1.91 µM with HT29 colon; 0.839 µM with MCF7 breast; 3.76 µM with M14 melanoma; 1.06 µM with MDA-MB-231 breast; 4.81 µM in the test with HS 578T breast; 6.57 µM with UACC-257 melanoma. The GI50 in the test on SF-268 CNS was 8.12 µM; in the test on SK-MEL-2 melanoma, 10.2 µM; with MDA-MB-435, 1.84 µM; with OVCAR-8 ovarian it was 9.55 µM. Also, the TGI with HT29 colon is 4.75 µM; in the test on MCF7 breast it was 21.8 µM; in the test on M14 melanoma, over 100 µM; with MDA-MB-231 breast, 17.9 µM; in the test on HS 578T breast, 35.6 µM; in the test with UACC-257 melanoma, 64.9 µM. Besides, the TGI is over 100 µM in the test on SF-268 CNS, over 100 µM with SK-MEL-2 melanoma, 4.88 µM in the test with MDA-MB-435 and over 100 µM in the test on OVCAR-8 ovarian.
For `CN(N=O)c1ccc(/C=C/c2ccnc3ccccc23)cc1`, the TGI with HT29 colon, in the test on MCF7 breast, in the test with M14 melanoma, in the test with MDA-MB-231 breast, in the test with HS 578T breast and with UACC-257 melanoma was over 100 µM throughout. In addition, the TGI with SF-268 CNS, with SK-MEL-2 melanoma, with MDA-MB-435 and in the test on OVCAR-8 ovarian was over 100 µM each time.
Turning to `O=C(NCCN1CCOCC1)c1cc2c(Oc3ccc(NC(=O)C4(C(=O)Nc5ccc(F)cc5)CC4)cc3)ccnc2[nH]1`, the GI50 in the test with HT29 colon is 3 µM; in the test with MCF7 breast, 2.36 µM; in the test with M14 melanoma, 4.14 µM; in the test on MDA-MB-231 breast, 8.4 µM; with HS 578T breast, 1.32 µM; in the test on UACC-257 melanoma, 5.14 µM. Further, the GI50 with SF-268 CNS was 6.4 µM; in the test with SK-MEL-2 melanoma, 9.19 µM; in the test on MDA-MB-435, 3.22 µM; in the test on OVCAR-8 ovarian, 5.19 µM. Besides, the TGI is 18.7 µM in the test on HT29 colon; 33.2 µM in the test with MCF7 breast; over 52.8 µM with M14 melanoma; 30.7 µM in the test on MDA-MB-231 breast; over 71.1 µM with HS 578T breast; 19.5 µM in the test on UACC-257 melanoma. For the same molecule, the TGI in the test with SF-268 CNS was over 100 µM; in the test on SK-MEL-2 melanoma it was 22.9 µM; with MDA-MB-435, 23.3 µM; in the test with OVCAR-8 ovarian, over 100 µM.
Turning to `Cc1ccc(C)c(N2CCN(c3ccncc3N)CC2)c1`, the GI50 is 11.2 µM in the test with HT29 colon; 10.3 µM in the test with MCF7 breast; 23 µM in the test on M14 melanoma; 14.3 µM with MDA-MB-231 breast; 14.8 µM with HS 578T breast; 14.4 µM in the test on UACC-257 melanoma. For the same molecule, the GI50 in the test on SF-268 CNS is 24.9 µM; in the test on SK-MEL-2 melanoma, 15.6 µM; in the test on MDA-MB-435, 14.9 µM; in the test with OVCAR-8 ovarian, 20.2 µM. In addition, the TGI in the test with HT29 colon came out at 26.3 µM; in the test with MCF7 breast, 29.6 µM; with M14 melanoma, 62.1 µM; in the test on MDA-MB-231 breast, 36.9 µM; in the test on HS 578T breast, 38.4 µM; with UACC-257 melanoma it was 34.6 µM. In addition, the TGI in the test with SF-268 CNS is over 100 µM; in the test on SK-MEL-2 melanoma, 31.2 µM; with MDA-MB-435, 36.3 µM; in the test with OVCAR-8 ovarian it was over 100 µM.
As for `Nc1nc(SCC#CCCl)c2[nH]cnc2n1`, the GI50 in the test with HT29 colon is 4.92 µM; with MCF7 breast, 4.12 µM; with M14 melanoma it was 6.58 µM; in the test on MDA-MB-231 breast it was 6.26 µM; in the test with HS 578T breast, 3.89 µM; in the test on UACC-257 melanoma, 7.12 µM. The GI50 in the test on SF-268 CNS was 3.93 µM; with SK-MEL-2 melanoma, 4.92 µM; in the test on MDA-MB-435, 3.81 µM; in the test on OVCAR-8 ovarian, 11.6 µM. In addition, the TGI in the test with HT29 colon worked out at 18.1 µM; in the test on MCF7 breast it was 16.3 µM; in the test on M14 melanoma it was 20.9 µM; with MDA-MB-231 breast, 21.4 µM; in the test with HS 578T breast it was 56.6 µM; in the test on UACC-257 melanoma, 22.5 µM. The TGI in the test on SF-268 CNS amounted to 18.6 µM; with SK-MEL-2 melanoma it was 23.3 µM; with MDA-MB-435 it was 18.6 µM; in the test with OVCAR-8 ovarian, 33.1 µM.
In the case of `COc1ccc2c(Cl)cc(NC(=S)Nc3ccccc3)nc2c1`, the TGI was 44.4 µM with HT29 colon; over 100 µM with MCF7 breast; 36.6 µM in the test on M14 melanoma; 56.4 µM in the test with MDA-MB-231 breast; 37.3 µM in the test on HS 578T breast; over 100 µM in the test with UACC-257 melanoma. The TGI in the test with SF-268 CNS turned out to be 57.2 µM; in the test with SK-MEL-2 melanoma it was 55 µM; in the test on MDA-MB-435 it was 34.6 µM; in the test with OVCAR-8 ovarian, 38.4 µM.
In the case of `COc1ccc2c(c1O)[C@@]13CCCC=C1[C@@H](C2)N(C)CC3`, the TGI in the test with HT29 colon, in the test on MCF7 breast, with M14 melanoma, in the test on MDA-MB-231 breast, in the test with HS 578T breast and with UACC-257 melanoma was over 100 µM in each case. For the same molecule, the TGI in the test with SF-268 CNS, in the test on SK-MEL-2 melanoma, in the test with MDA-MB-435 and in the test on OVCAR-8 ovarian was over 100 µM each time.
